IC50 data for 34 molecules are collected here from PubChem BioAssay AID1083 (University of Pittsburgh Molecular Library Screening Center, 2008).

Structures are written as SMILES. Activity calls are given as the source filed them. The rule behind the calls is not given here.

Chain of Serine/threonine-protein kinase PLK1 (Homo sapiens) (P53350 whole entry, looked up, the tested form may be a part): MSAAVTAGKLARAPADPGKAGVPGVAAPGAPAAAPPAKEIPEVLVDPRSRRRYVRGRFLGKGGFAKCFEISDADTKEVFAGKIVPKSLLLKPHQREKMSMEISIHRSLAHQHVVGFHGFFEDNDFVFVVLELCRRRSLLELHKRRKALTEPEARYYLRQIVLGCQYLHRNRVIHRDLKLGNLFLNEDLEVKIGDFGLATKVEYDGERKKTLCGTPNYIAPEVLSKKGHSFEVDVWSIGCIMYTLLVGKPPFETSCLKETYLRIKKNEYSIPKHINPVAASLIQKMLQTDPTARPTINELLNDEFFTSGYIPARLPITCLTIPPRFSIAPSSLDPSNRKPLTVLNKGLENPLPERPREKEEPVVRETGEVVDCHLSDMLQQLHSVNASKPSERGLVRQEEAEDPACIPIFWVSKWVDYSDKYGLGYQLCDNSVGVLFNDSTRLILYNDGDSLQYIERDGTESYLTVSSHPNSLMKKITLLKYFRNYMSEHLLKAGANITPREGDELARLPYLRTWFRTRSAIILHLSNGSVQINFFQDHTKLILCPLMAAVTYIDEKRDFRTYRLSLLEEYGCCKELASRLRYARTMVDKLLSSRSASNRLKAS

The test has as its target Serine/threonine-protein kinase PLK1 (Homo sapiens) (UniProt P53350). Put plainly: PLK1 polo-box domain peptide-binding inhibitors, SAR follow-up, biochemical, fluorescence polarization, purchased analogs, concentration response (AID 1083). The following applies: Plk1 PBD peptide binding. On the technique in general: Polarisation of emitted light reports the rotation of a fluorescent probe.
A word on the IC50: it is the point on the concentration scale where inhibition reaches its midpoint. As for `CCCOC(=O)c1ccc(NC(=O)c2ccc(C)c(I)c2)cc1`, the IC50 is > 50 µM (inactive). For `O=C(COC(=O)c1ccc(NC(=O)c2ccc(Cl)cc2)cc1)c1ccccc1` the value was > 50 µM (inactive). The same measure for `Cc1ccc(C(=O)CN2C=CC(=C(O)NCc3ccccc3)C=C2)cc1`: > 50 µM (inactive).

For the molecule `CCOC(=O)c1ccc(NC(=O)c2ccc(NC(=O)CC)cc2)cc1`, the IC50 is > 50 µM (inactive). For `CC(=O)N(CN1C(=O)c2ccccc2C1=O)c1ccc(Oc2ccccc2)cc1` the value was > 50 µM (inactive); for `CCCCCOC(=O)c1ccc(NC(=O)c2ccc([N+](=O)[O-])cc2)cc1`, > 50 µM (inactive); for `Cn1c(O)c(C(=O)c2ccccc2Cl)c(=O)n(C)c1=O`, > 50 µM (inactive). For `COC(=O)c1ccc(NC(=O)c2cc(-c3ccc(C)o3)nc3ccccc23)cc1` the value was > 50 µM (inactive). Consider `CCN(CC)CCOC(=O)c1ccc(N=Cc2c(O)n(C)c(=O)[nH]c2=O)cc1`, for which the IC50 was > 50 µM (inactive).

Regarding `Cn1c(=O)c2nc(-c3ccccc3)c(=O)n(C)c2n(C)c1=O`, the IC50 was > 50 µM (inactive).

With `O=c1[nH]c(=O)c2nc(-c3ccc(Cl)cc3)cnc2[nH]1`, the IC50 was > 50 µM (inactive). The same measure for `CC(=O)N(CN1C(=O)c2ccccc2C1=O)c1cc(Br)ccc1C`: > 50 µM (inactive); for `Cn1nc(-c2ccc([N+](=O)[O-])cc2)nc2c(=O)n(C)c(=O)nc1-2`: 0.375 µM.

`CC(=O)N(/N=C1\Sc2ccccc2C1=O)c1cccc(Br)c1`: the IC50 was 20.9 µM.

In the case of `CCN(CC)CCOC(=O)c1ccc(N=Cc2c(O)[nH]c(=O)[nH]c2=O)cc1`, the IC50 was > 50 µM (inactive). For `O=C1NC(=O)C(=Cc2cccn2-c2ccc([N+](=O)[O-])cc2)C(=O)N1` the value was > 50 µM (inactive). The same measure for `CC(=O)N(/N=C1\Sc2ccccc2C1=O)c1ccc(Br)cc1`: 45.8 µM; for `CCOC(=O)c1ccc(NC(=O)C2CCC(C(C)(C)C)CC2)cc1` (centres undefined): > 50 µM (inactive). For `CC(=O)N(CN1C(=O)c2cccc([N+](=O)[O-])c2C1=O)c1ccc2c(c1)oc1ccccc12` the value was > 50 µM (inactive); for `Cc1cc(-n2c(C)cc(C=C3C(=O)NC(=O)NC3=O)c2C)ccc1I`, 45.2 µM; for `CCN(CC)CCOC(=O)c1ccc(NC(=O)c2cc(OC)c(OC)cc2OC)cc1`, > 50 µM (inactive).

With `CCCCCCC(=O)N(CN1C(=O)c2ccccc2C1=O)c1ccc(OCc2ccccc2)cc1`, the IC50 was > 50 µM (inactive).

Take `CCOC(=O)c1ccc(NC(=O)c2cc3ccccc3oc2=O)cc1`: the IC50 was > 50 µM (inactive). The same measure for `CC(=O)N(CN1C(=O)c2ccccc2C1=O)c1ccccc1C`: > 50 µM (inactive); for `CCOC(=O)c1ccc(N=Cc2c(O)n(Cc3cccs3)c(=O)[nH]c2=O)cc1`: > 50 µM (inactive). For `CC(=O)N(/C=C1\Sc2ccccc2C1=O)c1ccc(C)cc1` the value was > 50 µM (inactive); for `CC(=O)N(CN1C(=O)c2cc(Cl)c(Cl)cc2C1=O)c1ccc(C)c(Cl)c1`, > 50 µM (inactive). The same measure for `Cc1ccc(-c2nnc3[nH]c(=O)n(C)c(=O)c3n2)cc1`: > 50 µM (inactive); for `CCOC(=O)c1ccc(N=Cc2c(O)n(C3CCCCC3)c(=O)n(C3CCCCC3)c2=O)cc1`: > 50 µM (inactive); for `CCCCCCC(=O)N(CN1C(=O)c2ccccc2C1=O)c1ccccc1`: > 50 µM (inactive). In the case of `CCOC(=O)c1ccc(N=Cc2c(O)n(C)c(=O)n(C)c2=O)cc1`, the IC50 was > 50 µM (inactive). For `COc1ccc(-c2nnc3[nH]c(=O)n(C)c(=O)c3n2)cc1` the value was > 50 µM (inactive). The same measure for `CCOC(=O)c1ccc(NC(=O)C2COc3ccccc3O2)cc1` (centres undefined): > 50 µM (inactive); for `CC(=O)c1ccc(N(CN2C(=O)c3ccc([N+](=O)[O-])cc3C2=O)C(C)=O)cc1`: > 50 µM (inactive).
